Like-named read-outs stand apart in the source and are kept apart here.
Key:
mouse urethra = test: Mouse urethral contraction induced by contractile agonists; conditions: pretreatment; Chloro 1 mM; CDCA 100 μM
Excerpt: […] were pretreated with bitter tastants, and then stimulated with contractile agonists. Contractile agonists alone were used as the control.

mouse airway strips = conditions: all at 1 mM; [Ca2+]i clamped; α-toxin permeabilized
[1] = test system: human airway smooth muscle; test: Measurement of cell shortening in human ASM cells; format: cell-based; conditions: chloroquine after Mch
Procedure: Human lung tissue was obtained (with informed consent) from patients undergoing surgery (lobectomy) for lung cancer at the Department of Surgery and the Department of Pathology at the Univ. of Massachusetts Memorial Med Ctr (Worcester, Mass.). The tumors were identified as nonsmall cell carcinoma (adenocarcinoma, squamous cell carcinoma). Intrapulmonary airways were dissected out and cleaned free of the connective tissues. These airways were either cut into the rings ([…]) for force measurements the same as for mouse airway tissues, or digested with the same enzymes, dissociation medium and isolation procedure as for single mouse ASM cells.
Myocytes were placed into a recording chamber superfused with the bath solution for patch clamp experiments at room temperature. Cells loaded with Fluo-3 were imaged using a custom-built wide-field digital imaging system and their lengths were determined using custom software to manually trace down the center of the cell.

L-type VDCCs = conditions: chloroquine 1 mM; for inhibition of L-type Ca2+ channel currents: Ba2+ as charge carrier
Mouse ASM cells = test: Measurement of Ca2+ sparks / local Ca2+ events in mouse ASM cells
[2] = test system: isolated smooth muscle cells from mouse internal anal sphincter; test: [Ca2+]i in isolated smooth muscle cells from mouse internal anal sphincter; format: cell-based; conditions: CDCA 100 μM; chloroquine 1 mM; denatonium 1 mM
Excerpt: Fluorescence images using fluo-3 as a calcium indicator were obtained using a custom-built wide-field digital imaging system. The camera was interfaced to a custom made inverted microscope, and the cells were imaged using either a 20× Nikon 1.3 NA for global [Ca^2+] measurement or a 60× Nikon 1.4 NA oil for Ca^2+ spark measurement. The 488 nm line of an Argon Ion laser provided fluorescence excitation, with a shutter to control exposure duration, and emission of the Ca^2+ indicator was monitored at wavelengths >500 nm. The images were acquired at the speed of either 1 Hz for global [Ca^2+] measurement or 50 Hz for Ca^2+ spark measurement. Subsequent image processing and analysis was performed off line using a custom-designed software package, running on a Linux/PC workstation. [Ca^2+]i was represented as ΔF/F0*100 with F calculated by integrating fluo-3 over entire cells for global [Ca^2+], or just the value at the brightest pixel (i.e., epicenter pixel) for Ca^2+ sparks.

## CCN(CC)CCCC(C)Nc1ccnc2cc(Cl)ccc12 (centres unmarked) [chloroquine]
Mouse urethra
  effect on 60 mM KCl-induced contraction: blocked
  effect on alpha1-agonist phenylephrine-induced contraction: inhibited
Mouse airway strips
  relaxation of ASM at fixed [Ca2+]i: failed to relax
[1]
  cell length, % of the control length: 94±5%
L-type VDCCs
  time to full inhibition of L-type Ca2+ channel currents: ≤ 2 min
  inhibition of L-type Ca2+ channel currents: fully inhibited
L-type VDCCs; listed as Chloro
  inhibition of L-type Ca2+ channel currents: blocked
Mouse ASM cells; chloroquine 10 μM for 2 mins, 13 cells without global rise, control 2.13±0.24
  Ca2+ spark frequency: 1.62±0.21 Hz
Mouse ASM cells; chloroquine 10 μM for 2 mins, n=13, control 20.6±1.69
  Ca2+ spark amplitude (ΔF/F0 at the brightest location): 18.1±1.3
Mouse ASM cells; chloroquine 10 μM, cells pretreated with 100 μM ryanodine, 14 cells
  local Ca2+ events (Ca2+ puffs or sparks): no detectable local Ca^2+ events
[2]
  effect on the increase in [Ca2+]i induced by 60 mM KCl: fully reversed

Reference: US20150202212A1, “METHODS FOR IDENTIFYING AGENTS FOR TREATING SMOOTH MUSCLE DISORDERS AND COMPOSITIONS THEREOF” (University of Massachusetts Medical School, priority 2012, published 2015)
